US20110071163A1, “USE OF AN OPIOID RECEPTOR ANTAGONIST FOR THE TREATMENT OR PREVENTION OF GASTROINTESTINAL TRACT DISORDERS” (ADOLOR CORPORATION, priority 2009, published 2011)
Values joined by “and” are separate entries in the source; they are usually repeats but may differ in a detail not shown here. Identical values can stand only once. “Also recorded” adds a separate entry of the source. Like-named read-outs stand apart in the source and are kept apart here. Values belong to the molecule of their own block, whether it stands above or below them.

Legend:
[1] = Plasma protein binding (human); type: in vitro ADME; conditions: read-out: Plasma protein binding (% free drug)
[2] = 0.5 mg BID, patients with OIC or OBD, Phase 2 (Webster et al. 2008), cited from earlier work
[3] = system: opioid receptors in the central nervous system; test: Rat formalin test: reversal of morphine analgesia; type: in vivo; conditions: for Potency of naltrexone relative to Compound I in reversing the effects of morphine in the CNS: morphine 10 mg/kg s.c., naltrexone s.c., Compound I oral
Procedure: Rats were injected with the irritant formalin and with 10 mg/kg of morphine subcutaneously. The amount of analgesia was determined by the reduction in the number of times the rat licked or paid attention to the site of formalin injection (events). Rats were dosed either with 0.02 mg/kg naltrexone (subcutaneous dose) or 1, 3 or 10 mg/kg Compound I (oral dose) to determine the ability of the compounds to reverse the analgesic effect of morphine. […] The reversal of morphine-induced analgesia by opioid receptor antagonists in the formalin test is believed to be primarily a centrally-mediated effect.

opioid receptors = test: Reversal of morphine-induced inhibition of gastrointestinal transit of charcoal meal in mice; type: in vivo; conditions: Compound I oral dose
Procedure: Mice were either dosed with 10 μg/kg morphine intracerebroventricularly or with 1 mg/kg morphine subcutaneously. The degree of gastrointestinal transit of charcoal meal in the mice was measured in the absence of Compound I and in the presence of varying oral doses of Compound I in order to determine the ability of the compound to reverse the inhibition of gastrointestinal (GI) transit induced by morphine. The minimum effective dose of Compound I required to reverse GI transit inhibition in mice dosed with morphine directly into the CNS was determined to be about 3.0 mg/kg oral dose. (FIG. 2) In contrast, the effective dose of Compound I required to reverse GI transit inhibition in mice dosed with morphine systemically was determined to be about 0.16 mg/kg oral dose.

[4] = system: P-glycoprotein (P-gp) transporter; test: Partitioning in plasma and brain of wild-type and P-glycoprotein knockout mice; type: in vivo
Procedure: Wild-type or P-glycoprotein (P-gp) knockout mice were dosed with 2.5 mg/kg of Compound I intravenously. The mice were sacrificed and the amounts of Compound I in the blood and in the brain were assayed using standard techniques. […] Moreover, blood-brain barrier penetration of Compound I increased 7- to 19-fold in knockout mice that were deficient in the P-gp transporter.

[5] = molecular target: T1, cloned human μ-opioid receptors (Homo sapiens, UniProt P35372); test: In vitro receptor binding in CHO cell membranes; conditions: CHO cell membranes expressing cloned human μ-opioid receptors
T1 construct: expressed in transfected cells; host or cells: CHO cells (membranes)

[6] = Phase 1 oral pharmacokinetics of Compound I in healthy subjects; type: in vivo, human; conditions: for Mean free Cmax plasma level: 1 mg single oral dose, healthy subjects
Procedure: (§1) The first approach was a calculation based on comparison of pharmacokinetic and pharmacological data for the highly peripheralized opioid receptor antagonist alvimopan. […] Webster et al. (2008) Pain 137:428-440.
If there is a potential for a degree of drug accumulation upon repeated dosing regimens, the doses associated with efficacy for treating OIC or OBD may be appreciably lower than the doses calculated above, i.e., as low as 0.01 to 0.02 mg whole body dose QD or BID (for a human weighing approximately 70 kg).

[7] = Plasma protein binding (mouse); type: in vitro ADME; conditions: read-out: Plasma protein binding (% free drug)
[8] = system: opioid receptors in the CNS; test: Phase 1 pharmacodynamic markers of central opioid receptor antagonism (morphine-induced miosis, ACTH, cortisol); type: in vivo, human; conditions: humans
Procedure: Determination of the lowest dose of Compound I that produces antagonism of opioid receptors in the CNS was addressed directly by examining the reported effect of Compound I on pharmacodynamic markers of central opioid receptor antagonism that were measured in the single and multiple dose Phase 1 clinical studies, i.e., the reversal of morphine-induced miosis (the effect on pupil diameter) and increases in adrenocorticotropic hormone (ACTH) and cortisol. The observed whole body dose of Compound I associated with a threshold reversal of morphine-induced miosis was 10 mg. Likewise, the observed whole body dose of Compound I associated with threshold increases in ACTH and cortisol was between 10 and 25 mg. A conservative estimate of the whole body dose for central opioid receptor antagonism was then determined by reducing these observed threshold doses by a half-log factor (i.e., 3-fold). Thus, the minimum doses of Compound I associated with pharmacologically relevant antagonism of opioid receptors in the CNS were conservatively estimated to be in the range of from about 3 mg to about 10 mg.

μ-opioid receptor = molecular target: T2, μ-opioid receptor (Homo sapiens, UniProt P35372); test: Calculated effective dose and pharmacokinetic model of Compound I for treating OIC or OBD; conditions: humans
T2 construct: expressed in transfected cells; host or cells: CHO cells (membranes)
From the text: (§2) There are a number of approaches to determining the effective dose of Compound I for treating OIC or OBD. Four are outlined below. Depending on the approach, a number of basic assumptions were made in calculating the effective dose of Compound I for treating OIC or OBD: (i) The μ-opioid receptor is the primary target of Compound I to produce efficacy in the treatment of OIC or OBD, although other opioid receptors may also play a role. (ii) The systemic presence of Compound I in the periphery (but not in the CNS) is sufficient to produce robust efficacy in treating OIC or OBD. Thus, calculations were based on systemic plasma concentrations as opposed to possible topical or local effects in gut tissues, though these may also contribute to efficacy. (iii) The pharmacokinetic properties, specifically the oral bioavailability, of Compound I will be roughly similar in healthy volunteers and in patients with OIC or OBD.
as §1
A second approach was a calculation based on the potency (Ki) of Compound I as an antagonist for the […] receptor.
A third approach was to generate a pharmacokinetic model for Compound I at low doses. This was accomplished by assuming a linear relationship between dose and all parameters of the plasma time course for the 1 mg dose of Compound I, and extrapolating these to lower doses.

[9] = Phase I multiple ascending dose clinical study in subjects with OIC; type: in vivo, human
From the text: The objective of the Phase I multiple ascending dose clinical study was to evaluate the safety, tolerability, pharmacokinetics, and clinical effect of multiple ascending doses of Compound I administered twice daily (BID) to subjects who have opioid induced constipation (OIC) as a result of chronic opioid therapy for persistent noncancer pain. The first part of the study was a randomized, double blind, placebo controlled, multiple ascending dose study during which subjects took 4 oral doses of study medication over 2 days while confined to the study unit. Each of the 0.10 mg, 0.25 mg, 0.35 mg, 0.50 mg […] BID dose cohorts included 4 subjects, and randomization was unbalanced, with a 3:1 ratio of Compound I treatment (n=3) to placebo treatment (n=1). The 0.75 mg BID cohort included only 2 subjects. Assessments of clinical effect included the following measures, which were assessed starting immediately after the first dose of study medication through discharge on day 3: (i) time to first bowel movement after the first dose of study medication; (ii) number of bowel movements; and (iii) bowel movement Comfort Scores, stool weight, and stool consistency as measured by the Bristol Stool Scale for each bowel movement that occurs while the subject was confined to the study unit.
For pharmacokinetic analyses, blood samples were collected from each subject on day 1 at approximately 1 hour before the first dose of study medication (time 0) and at each of the following times after the first dose of study medication: 15 min, 30 min, 60 min, 90 min, 2 h, 3 h, 4 h, 6 h, 8 h, 10 h, and 12 h. FIGS. 7A, 7B and 7C indicate the plasma levels of Compound I obtained after the first dose over the dosing interval of 12 h and for each of the 5 doses tested (0.10 mg, 0.25 mg, 0.35 mg, 0.50 mg and 0.75 mg BID).

[10] = Oral bioavailability in cynomologus monkey; conditions: in vivo, 0.1 mg/kg to 0.5 mg/kg
From the text: as §2

[11] = Oral bioavailability in rat; type: in vivo
[12] = 0.10 mg and 0.25 mg doses, preliminary

T2 sequence (P35372 whole entry): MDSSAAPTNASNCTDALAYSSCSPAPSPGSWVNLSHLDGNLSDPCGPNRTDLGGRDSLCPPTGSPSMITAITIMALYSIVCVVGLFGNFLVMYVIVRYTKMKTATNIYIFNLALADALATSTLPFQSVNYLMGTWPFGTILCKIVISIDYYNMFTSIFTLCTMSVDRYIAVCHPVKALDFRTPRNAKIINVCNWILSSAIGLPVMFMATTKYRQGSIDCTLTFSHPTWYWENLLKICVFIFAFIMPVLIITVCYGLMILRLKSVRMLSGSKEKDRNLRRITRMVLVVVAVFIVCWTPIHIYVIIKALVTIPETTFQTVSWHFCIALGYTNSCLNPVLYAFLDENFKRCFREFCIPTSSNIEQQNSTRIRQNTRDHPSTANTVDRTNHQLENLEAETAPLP
T1 sequence (P35372 whole entry): as above

fraction unbound [1]: 0.203
Structure (SMILES): C[C@H]1CN(C[C@H](Cc2ccccc2)C(=O)NCC(=O)O)CC[C@@]1(C)c1cccc(O)c1 [Alvimopan, alvimopan]
Mean free Cmax plasma level [2]: 0.1^1 ng/ml
Mean free Cmax plasma level ([2]; listed as alvimopan): approximately 0.1 ng/ml

Structure (SMILES): O=C1CC[C@@]2(O)[C@H]3Cc4ccc(O)c5c4[C@@]2(CCN3CC2CC2)[C@H]1O5 [naltrexone]
Potency of naltrexone relative to Compound I in reversing the effects of morphine in the CNS [3]: more than 100 times
Potency of naltrexone relative to Compound I in reversing the effects of morphine in the CNS ([3]; listed as Naltrexone): approximately 100 times

Compound I in blood plasma relative to brain ([4]; wild type mice, 2.5 mg/kg intravenously): 17 times
Ki [5]: 360 pM
Mean free Cmax plasma level ([6]; converted with MW 386.4 g/mol): 2.98 nM
Mean free Cmax plasma level ([6]; free drug estimated with mouse plasma protein binding): 1.15 ng/ml and 1.15^2 ng/ml
half-life ([6]; human, plasma, oral, humans, doses of 1-3 mg): ~12 h
Oral pharmacokinetics versus dose ([6]; humans, dose range 1 mg to 100 mg): highly consistent and dose-proportional
fraction unbound [1]: 0.738
fraction unbound [7]: 0.64
Whole body dose effective in treating OIC or OBD without antagonizing CNS μ-opioid receptors (calculated) (μ-opioid receptor; QD or BID, multiple rationales): approximately 0.1 mg/day
Whole body dose needed to achieve 0.36 nM of free drug (second approach) (μ-opioid receptor; linear extrapolation): 0.12 mg
Dose needed to produce a free drug plasma Cmax of 0.1 ng/ml (μ-opioid receptor; linear extrapolation below 1 mg): 0.087 mg
bioavailability [10]: ~100%
Oral bioavailability [11]: high oral bioavailability
Structure (SMILES): COc1cc(CNCCC2CCOCC2)ccc1Oc1cnc(C(N)=O)cn1 [Compound I, 5-(2-methoxy-4-{[2-(tetrahydro-pyran-4-yl)-ethylamino]-methyl}-phenoxy)-pyrazine-2-carboxamide]
Times less potent than naltrexone as antagonist of opioid receptors in the central nervous system [3]: at least 100 times
Minimum effective dose to reverse GI transit inhibition (opioid receptors; morphine 10 μg/kg intracerebroventricularly (direct CNS)): about 3.0 mg/kg
Effective dose to reverse GI transit inhibition (opioid receptors; morphine 1 mg/kg subcutaneously (systemic)): about 0.16 mg/kg
P-gp transport ([4]; concluded from knockout mice): substrate for the efflux transporter P-gp
Whole body dose associated with threshold reversal of morphine-induced miosis [8]: 10 mg
Amount effective for treating OIC or OBD confirmed in Phase I clinical studies [9]: approximately 0.1 mg/day
Pharmacological effect [9, 12]: produced the desired pharmacological effects
Tolerability [9, 12]: well-tolerated; also recorded: well tolerated
